Values belong to the compound of their own block, whether it stands above or below them.
Legend:
Tau-tubulin kinase 1 [1] = biological target: T1, Tau-tubulin kinase 1 (Homo sapiens, UniProt Q5TCY1); test: Inhibition of human TTBK1 assessed as residual activity at 100 uM using MBP as substrate by [gamma-33P]-ATP assay relative to control
[2] = biological target: Mitogen-activated protein kinase 11 (Homo sapiens) (UniProt Q15759); test: Inhibition of human p38beta assessed as residual activity at 100 uM using MBP as substrate by [gamma-33P]-ATP assay relative to control
[3] = biological target: Tau-tubulin kinase 2 (Homo sapiens) (UniProt Q6IQ55); test: Inhibition of human TTBK2 assessed as residual activity at 100 uM using MBP as substrate by [gamma-33P]-ATP assay relative to control
[4] = biological target: T2, Casein kinase II subunit alpha (Homo sapiens, UniProt P68400); test: Inhibition of human CK2A assessed as residual activity at 100 uM using RRRDDDSDDD as substrate by [gamma-33P]-ATP assay relative to control
[5] = biological target: T3, Receptor-interacting serine/threonine-protein kinase 3 (Homo sapiens, UniProt Q9Y572); test: Inhibition of human RIPK3 assessed as residual activity at 100 uM using MBP as substrate by [gamma-33P]-ATP assay relative to control
[6] = biological target: T3, Receptor-interacting serine/threonine-protein kinase 3
[7] = biological target: T4, Serine/threonine-protein kinase A-Raf (Homo sapiens) (UniProt P10398); test: Inhibition of human ARAF assessed as residual activity at 100 uM using MEK1 as substrate by [gamma-33P]-ATP assay relative to control
T4 sequence (whole entry): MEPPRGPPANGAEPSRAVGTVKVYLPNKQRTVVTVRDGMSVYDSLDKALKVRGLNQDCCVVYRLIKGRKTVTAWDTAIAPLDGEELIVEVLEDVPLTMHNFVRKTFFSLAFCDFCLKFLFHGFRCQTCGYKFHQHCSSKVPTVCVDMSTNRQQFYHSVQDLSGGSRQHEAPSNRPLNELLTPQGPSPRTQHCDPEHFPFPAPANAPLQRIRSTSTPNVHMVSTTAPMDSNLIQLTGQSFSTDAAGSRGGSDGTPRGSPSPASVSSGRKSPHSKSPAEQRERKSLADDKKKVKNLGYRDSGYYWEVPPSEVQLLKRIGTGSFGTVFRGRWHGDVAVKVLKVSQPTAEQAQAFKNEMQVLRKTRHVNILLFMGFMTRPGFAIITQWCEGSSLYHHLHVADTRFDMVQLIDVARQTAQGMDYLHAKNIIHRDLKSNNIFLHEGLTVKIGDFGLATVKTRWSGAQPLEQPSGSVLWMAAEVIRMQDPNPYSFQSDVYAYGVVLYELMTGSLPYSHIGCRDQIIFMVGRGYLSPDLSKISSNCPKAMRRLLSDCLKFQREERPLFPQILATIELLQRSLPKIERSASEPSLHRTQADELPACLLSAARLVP

[8] = biological target: T5, Mitogen-activated protein kinase kinase kinase 20 (Homo sapiens, UniProt Q9NYL2)
[9] = biological target: Dual specificity tyrosine-phosphorylation-regulated kinase 4 (Homo sapiens) (UniProt Q9NR20); test: Inhibition of human DYRK4 assessed as residual activity at 100 uM using RRRFRPASPLRGPPK as substrate by [gamma-33P]-ATP assay relative to control
[10] = biological target: Dual specificity tyrosine-phosphorylation-regulated kinase 4 (Homo sapiens, UniProt Q9NR20)
[11] = biological target: T2, Casein kinase II subunit alpha
[12] = biological target: Serine/threonine-protein kinase A-Raf (Homo sapiens, UniProt P10398)
[13] = biological target: T5, Mitogen-activated protein kinase kinase kinase 20; test: Inhibition of human ZAK assessed as residual activity at 100 uM using MBP as substrate by [gamma-33P]-ATP assay relative to control
Tau-tubulin kinase 1 [14] = biological target: T1, Tau-tubulin kinase 1
[15] = biological target: T6, Serine/threonine-protein kinase WNK3 (Homo sapiens, UniProt Q9BYP7)
[16] = biological target: Wee1-like protein kinase (Homo sapiens) (UniProt P30291); test: Inhibition of human WEE1 assessed as residual activity at 100 uM using MBP as substrate by [gamma-33P]-ATP assay relative to control
[17] = biological target: T6, Serine/threonine-protein kinase WNK3; test: Inhibition of human WNK3 assessed as residual activity at 100 uM using MBP as substrate by [gamma-33P]-ATP assay relative to control
[18] = biological target: T7, Serine/threonine-protein kinase Nek6 (Homo sapiens, UniProt Q9HC98); test: Inhibition of human NEK6 assessed as residual activity at 100 uM using casein as substrate by [gamma-33P]-ATP assay relative to control
[19] = biological target: T8, Serine/threonine-protein kinase Nek7 (Homo sapiens, UniProt Q8TDX7); test: Inhibition of human NEK7 assessed as residual activity at 100 uM using casein as substrate by [gamma-33P]-ATP assay relative to control
[20] = biological target: T8, Serine/threonine-protein kinase Nek7
[21] = biological target: T7, Serine/threonine-protein kinase Nek6
[22] = biological target: Tyrosine-protein kinase JAK3 (Homo sapiens) (UniProt P52333); test: Inhibition of human JAK3 assessed as residual activity at 100 uM using poly[Glu:Tyr] (4:1) as substrate by [gamma-33P]-ATP assay relative to control
[23] = biological target: T9, Mitogen-activated protein kinase kinase kinase kinase 1 (Homo sapiens, UniProt Q92918)
[24] = biological target: T10, Serine/threonine-protein kinase VRK2 (Homo sapiens, UniProt Q86Y07); test: Inhibition of human VRK2 assessed as residual activity at 100 uM using casein as substrate by [gamma-33P]-ATP assay relative to control
[25] = biological target: T11, Homeodomain-interacting protein kinase 1 (Homo sapiens, UniProt Q86Z02); test: Inhibition of human HIPK1 assessed as residual activity at 100 uM using MBP as substrate by [gamma-33P]-ATP assay relative to control
[26] = biological target: T12, Mitogen-activated protein kinase kinase kinase 8 (Homo sapiens, UniProt P41279)
[27] = biological target: T10, Serine/threonine-protein kinase VRK2
[28] = biological target: T11, Homeodomain-interacting protein kinase 1
[29] = biological target: Serine/threonine-protein kinase VRK1 (Homo sapiens, UniProt Q99986)
[30] = biological target: T12, Mitogen-activated protein kinase kinase kinase 8; test: Inhibition of human COT1 assessed as residual activity at 100 uM using MEK1 as substrate by [gamma-33P]-ATP assay relative to control
[31] = biological target: T9, Mitogen-activated protein kinase kinase kinase kinase 1; test: Inhibition of human HPK1 assessed as residual activity at 100 uM using MBP as substrate by [gamma-33P]-ATP assay relative to control
TGF-beta receptor type-2 [32] = biological target: T13, TGF-beta receptor type-2 (Homo sapiens, UniProt P37173)
[33] = biological target: Activin receptor type-1-like (Homo sapiens) (UniProt P37023); test: Inhibition of human ALK1 assessed as residual activity at 100 uM using casein as substrate by [gamma-33P]-ATP assay relative to control
TGF-beta receptor type-2 [34] = biological target: T13, TGF-beta receptor type-2; test: Inhibition of human TGFBR2 assessed as residual activity at 100 uM using MBP as substrate by [gamma-33P]-ATP assay relative to control
[35] = biological target: Bone morphogenetic protein receptor type-1A (Homo sapiens) (UniProt P36894); test: Inhibition of human ALK3 assessed as residual activity at 100 uM using casein as substrate by [gamma-33P]-ATP assay relative to control
[36] = biological target: Activin receptor type-1B (Homo sapiens) (UniProt P36896); test: Inhibition of human ALK4 assessed as residual activity at 100 uM using casein as substrate by [gamma-33P]-ATP assay relative to control
[37] = biological target: Bone morphogenetic protein receptor type-1B (Homo sapiens) (UniProt O00238); test: Inhibition of human ALK6 assessed as residual activity at 100 uM using casein as substrate by [gamma-33P]-ATP assay relative to control

T1 sequence (Q5TCY1 whole entry): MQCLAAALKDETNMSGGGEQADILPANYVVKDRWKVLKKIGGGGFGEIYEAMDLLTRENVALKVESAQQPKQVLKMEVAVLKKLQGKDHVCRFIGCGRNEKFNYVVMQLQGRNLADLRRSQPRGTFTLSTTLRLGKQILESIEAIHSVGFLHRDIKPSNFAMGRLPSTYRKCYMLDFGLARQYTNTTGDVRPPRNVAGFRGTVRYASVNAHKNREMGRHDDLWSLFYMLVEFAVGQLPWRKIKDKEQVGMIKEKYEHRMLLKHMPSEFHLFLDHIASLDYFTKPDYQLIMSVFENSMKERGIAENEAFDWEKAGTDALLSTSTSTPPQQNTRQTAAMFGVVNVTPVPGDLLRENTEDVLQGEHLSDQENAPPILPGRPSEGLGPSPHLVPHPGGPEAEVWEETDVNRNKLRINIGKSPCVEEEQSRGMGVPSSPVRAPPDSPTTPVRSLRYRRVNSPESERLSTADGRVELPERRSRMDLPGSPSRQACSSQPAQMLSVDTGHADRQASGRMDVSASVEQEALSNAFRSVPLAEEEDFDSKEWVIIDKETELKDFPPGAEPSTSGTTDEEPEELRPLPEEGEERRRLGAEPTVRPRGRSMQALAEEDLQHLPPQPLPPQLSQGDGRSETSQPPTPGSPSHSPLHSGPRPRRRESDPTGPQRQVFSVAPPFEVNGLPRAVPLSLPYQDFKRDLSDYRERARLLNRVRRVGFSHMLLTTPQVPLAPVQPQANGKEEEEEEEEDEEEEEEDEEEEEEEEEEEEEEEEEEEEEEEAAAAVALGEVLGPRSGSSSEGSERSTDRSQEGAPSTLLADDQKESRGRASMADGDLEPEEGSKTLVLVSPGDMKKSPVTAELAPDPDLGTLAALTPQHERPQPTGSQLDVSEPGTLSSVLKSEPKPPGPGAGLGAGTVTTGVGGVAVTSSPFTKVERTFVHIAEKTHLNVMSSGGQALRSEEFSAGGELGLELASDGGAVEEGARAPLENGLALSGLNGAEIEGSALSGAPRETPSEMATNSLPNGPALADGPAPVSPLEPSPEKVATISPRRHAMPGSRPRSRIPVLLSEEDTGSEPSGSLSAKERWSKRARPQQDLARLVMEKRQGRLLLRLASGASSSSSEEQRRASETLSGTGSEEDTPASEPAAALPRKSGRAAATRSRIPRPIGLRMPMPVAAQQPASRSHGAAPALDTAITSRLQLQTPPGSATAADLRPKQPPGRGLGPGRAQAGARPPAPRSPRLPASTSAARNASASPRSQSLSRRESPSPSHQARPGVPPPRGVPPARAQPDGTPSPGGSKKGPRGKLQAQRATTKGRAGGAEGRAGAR
T10 sequence (Q86Y07 whole entry): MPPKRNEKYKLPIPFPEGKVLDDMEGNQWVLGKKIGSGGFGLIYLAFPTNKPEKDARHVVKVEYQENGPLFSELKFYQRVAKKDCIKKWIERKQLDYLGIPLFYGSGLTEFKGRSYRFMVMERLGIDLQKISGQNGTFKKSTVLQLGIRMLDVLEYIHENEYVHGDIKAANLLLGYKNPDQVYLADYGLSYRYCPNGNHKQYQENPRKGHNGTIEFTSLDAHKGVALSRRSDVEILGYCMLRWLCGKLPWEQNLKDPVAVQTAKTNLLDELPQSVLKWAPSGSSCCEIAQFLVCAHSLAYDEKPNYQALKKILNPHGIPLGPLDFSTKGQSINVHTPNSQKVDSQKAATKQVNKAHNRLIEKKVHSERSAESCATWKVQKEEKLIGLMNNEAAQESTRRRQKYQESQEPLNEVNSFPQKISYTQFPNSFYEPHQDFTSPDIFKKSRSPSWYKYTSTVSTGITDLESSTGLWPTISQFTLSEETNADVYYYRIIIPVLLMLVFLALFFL
T7 sequence (Q9HC98 whole entry): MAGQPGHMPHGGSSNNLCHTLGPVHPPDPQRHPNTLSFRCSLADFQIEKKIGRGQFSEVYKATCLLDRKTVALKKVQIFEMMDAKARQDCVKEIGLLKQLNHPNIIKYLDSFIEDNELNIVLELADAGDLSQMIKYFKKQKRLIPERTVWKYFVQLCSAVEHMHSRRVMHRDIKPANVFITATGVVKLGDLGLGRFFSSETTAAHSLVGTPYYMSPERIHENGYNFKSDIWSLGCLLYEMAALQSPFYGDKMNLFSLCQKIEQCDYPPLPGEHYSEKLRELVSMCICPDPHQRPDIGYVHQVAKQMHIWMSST
T12 sequence (P41279 whole entry): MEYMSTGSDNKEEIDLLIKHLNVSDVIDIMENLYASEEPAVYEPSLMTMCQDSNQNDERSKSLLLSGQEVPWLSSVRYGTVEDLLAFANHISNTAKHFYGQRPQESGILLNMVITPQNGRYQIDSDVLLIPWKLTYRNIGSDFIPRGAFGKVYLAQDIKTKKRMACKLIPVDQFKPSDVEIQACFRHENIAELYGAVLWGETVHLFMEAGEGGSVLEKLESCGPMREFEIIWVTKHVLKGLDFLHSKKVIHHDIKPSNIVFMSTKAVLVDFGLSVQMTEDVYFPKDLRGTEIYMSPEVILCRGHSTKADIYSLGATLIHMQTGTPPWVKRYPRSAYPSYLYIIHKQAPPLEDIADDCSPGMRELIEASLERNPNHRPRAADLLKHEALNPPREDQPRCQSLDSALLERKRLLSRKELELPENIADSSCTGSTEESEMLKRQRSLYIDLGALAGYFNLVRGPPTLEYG
T13 sequence (P37173 whole entry): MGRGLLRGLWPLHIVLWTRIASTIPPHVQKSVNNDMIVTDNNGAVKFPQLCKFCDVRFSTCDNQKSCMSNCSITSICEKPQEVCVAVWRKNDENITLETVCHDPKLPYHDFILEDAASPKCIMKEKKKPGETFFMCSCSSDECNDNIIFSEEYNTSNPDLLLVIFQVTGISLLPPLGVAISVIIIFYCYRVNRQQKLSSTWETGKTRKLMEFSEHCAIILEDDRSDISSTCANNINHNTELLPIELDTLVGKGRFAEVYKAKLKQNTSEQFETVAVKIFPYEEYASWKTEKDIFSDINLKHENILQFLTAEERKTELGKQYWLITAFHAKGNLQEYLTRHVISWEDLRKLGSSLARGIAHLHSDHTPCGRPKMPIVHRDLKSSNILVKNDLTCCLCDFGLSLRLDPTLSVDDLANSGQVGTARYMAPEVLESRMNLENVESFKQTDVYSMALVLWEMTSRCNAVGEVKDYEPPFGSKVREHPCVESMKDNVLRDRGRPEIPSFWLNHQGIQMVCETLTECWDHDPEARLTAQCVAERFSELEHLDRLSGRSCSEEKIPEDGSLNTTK
T6 sequence (Q9BYP7 whole entry): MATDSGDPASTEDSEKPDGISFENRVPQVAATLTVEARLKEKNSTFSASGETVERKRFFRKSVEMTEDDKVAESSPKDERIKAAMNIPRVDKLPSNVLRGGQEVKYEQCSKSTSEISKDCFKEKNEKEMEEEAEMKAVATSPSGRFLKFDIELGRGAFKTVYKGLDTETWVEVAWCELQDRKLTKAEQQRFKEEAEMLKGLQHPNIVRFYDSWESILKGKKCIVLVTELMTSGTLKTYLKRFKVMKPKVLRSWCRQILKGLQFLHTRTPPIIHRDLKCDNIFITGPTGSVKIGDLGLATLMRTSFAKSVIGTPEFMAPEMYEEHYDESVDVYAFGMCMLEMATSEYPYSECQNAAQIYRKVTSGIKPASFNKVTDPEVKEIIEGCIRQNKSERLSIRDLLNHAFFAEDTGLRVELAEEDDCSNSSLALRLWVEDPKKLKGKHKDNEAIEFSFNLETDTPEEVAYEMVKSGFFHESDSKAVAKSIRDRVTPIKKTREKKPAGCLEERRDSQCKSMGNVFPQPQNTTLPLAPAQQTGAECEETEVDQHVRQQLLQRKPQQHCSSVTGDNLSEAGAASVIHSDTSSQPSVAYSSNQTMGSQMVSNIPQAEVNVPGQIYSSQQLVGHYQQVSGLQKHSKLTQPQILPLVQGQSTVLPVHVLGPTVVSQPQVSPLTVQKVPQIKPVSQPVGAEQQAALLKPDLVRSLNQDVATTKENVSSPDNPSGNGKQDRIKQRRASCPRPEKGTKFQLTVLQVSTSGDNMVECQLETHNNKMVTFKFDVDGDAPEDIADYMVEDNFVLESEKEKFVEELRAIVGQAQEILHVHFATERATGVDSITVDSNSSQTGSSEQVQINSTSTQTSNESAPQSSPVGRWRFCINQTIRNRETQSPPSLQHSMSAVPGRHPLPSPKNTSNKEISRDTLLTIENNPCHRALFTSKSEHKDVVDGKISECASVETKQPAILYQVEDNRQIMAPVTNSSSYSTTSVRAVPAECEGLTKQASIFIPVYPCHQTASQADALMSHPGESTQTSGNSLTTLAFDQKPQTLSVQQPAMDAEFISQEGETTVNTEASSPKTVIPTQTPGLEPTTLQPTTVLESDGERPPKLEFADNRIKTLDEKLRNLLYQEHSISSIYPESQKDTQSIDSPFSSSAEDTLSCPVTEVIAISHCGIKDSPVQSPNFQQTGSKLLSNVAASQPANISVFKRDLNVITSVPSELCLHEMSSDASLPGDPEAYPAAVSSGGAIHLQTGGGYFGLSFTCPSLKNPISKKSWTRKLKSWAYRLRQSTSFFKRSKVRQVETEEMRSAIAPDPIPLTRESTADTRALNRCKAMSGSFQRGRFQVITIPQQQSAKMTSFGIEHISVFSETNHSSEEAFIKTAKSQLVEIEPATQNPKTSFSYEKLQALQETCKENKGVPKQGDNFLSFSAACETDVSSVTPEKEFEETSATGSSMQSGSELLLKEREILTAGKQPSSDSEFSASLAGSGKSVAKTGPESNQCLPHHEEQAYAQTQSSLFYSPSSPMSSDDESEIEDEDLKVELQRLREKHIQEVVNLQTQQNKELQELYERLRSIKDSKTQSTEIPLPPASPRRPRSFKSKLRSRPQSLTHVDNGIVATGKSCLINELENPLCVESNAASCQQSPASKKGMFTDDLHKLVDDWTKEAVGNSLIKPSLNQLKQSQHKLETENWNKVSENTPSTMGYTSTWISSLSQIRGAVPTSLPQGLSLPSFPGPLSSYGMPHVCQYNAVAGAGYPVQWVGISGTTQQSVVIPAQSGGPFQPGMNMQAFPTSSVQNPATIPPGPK

IC50 [15]: 2310 nM | Activity [16]: < 65% | Activity [17]: < 65%
SMILES: C=CCn1c(=O)c2cnc(Nc3ccc(N4CCN(C)CC4)cc3)nc2n1-c1cccc(C(C)(C)O)n1 [ADAVOSERTIB]

IC50 [23]: 52.9 nM | Activity [24]: < 65% | Activity [25]: < 65% | IC50 [26]: 9.95 µM | IC50 [27]: 16.4 µM | IC50 [28]: 621 nM | IC50 [29]: 743 nM | Activity [30]: < 65% | Activity [31]: < 65%
SMILES: Cn1cc(C2=C(c3cn(CCCSC(=N)N)c4ccccc34)C(=O)NC2=O)c2ccccc21 [BISINDOLYLMALEIMIDE IX]

IC50 (TGF-beta receptor type-2 [32]): 156 nM | Activity [33]: < 65% | Activity (TGF-beta receptor type-2 [34]): < 65% | Activity [35]: < 65% | Activity [36]: < 65% | Activity [37]: < 65%
SMILES: c1ccc2c(-c3cnn4cc(-c5ccc(N6CCNCC6)cc5)cnc34)ccnc2c1

Continued, compound first:

SMILES: Oc1ccc(-c2nc(-c3ccc(F)cc3)c(-c3ccncc3)[nH]2)cc1
Activity (Tau-tubulin kinase 1 [1]): < 65% | Activity [2]: < 65% | Activity [3]: < 65%

SMILES: O=C1Nc2ccc(I)cc2C1=Cc1cc(Br)c(O)c(Br)c1 [GW305074X]
Activity [4]: < 65% | Activity [5]: < 65% | IC50 [6]: 5.4 µM | Activity [7]: < 65% | IC50 [8]: 1890 nM | Activity [9]: < 65% | IC50 [10]: 4.38 µM | IC50 [11]: 279 nM | IC50 [12]: 14.6 nM | Activity [13]: < 65%

SMILES: Oc1ccc(-c2nc(-c3ccncc3)c(-c3ccc(F)cc3)[nH]2)cc1 [SB-202190]
IC50 (Tau-tubulin kinase 1 [14]): 47.2 µM

SMILES: O=C1Nc2ccc3ncsc3c2/C1=C/c1c[nH]cn1
Activity [18]: < 65% | Activity [19]: < 65% | IC50 [20]: 7.28 µM | IC50 [21]: 59.8 µM

SMILES: CCOc1nc(NC(=O)Cc2cc(OC)ccc2OC)cc(N)c1C#N
Activity [22]: < 65%

From ChEMBL document CHEMBL4325871 (Eur J Med Chem, 2019)
